Tests used:
Lipolase = biological target: T1, Lipolase (Thermomyces lanuginosus, UniProt O59952); assay: storage stability of lipase (Lipolase activity, pNitrophenol-valerate substrate) in liquid formulations at 37° C.; assay type: biochemical, Thermomyces lanuginosa; settings: Lipolase 0.4 wt %, storage at 37° C.
T1 construct: purchased Sigma-Aldrich
T1 sequence (O59952 23-291): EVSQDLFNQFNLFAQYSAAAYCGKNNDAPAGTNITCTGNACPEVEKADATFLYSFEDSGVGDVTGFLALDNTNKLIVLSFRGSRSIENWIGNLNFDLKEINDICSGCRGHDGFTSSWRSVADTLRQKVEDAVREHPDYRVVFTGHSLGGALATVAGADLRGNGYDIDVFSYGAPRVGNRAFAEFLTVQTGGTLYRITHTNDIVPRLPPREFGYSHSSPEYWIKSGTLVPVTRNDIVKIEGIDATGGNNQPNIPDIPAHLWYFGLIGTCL

Savinase = biological target: T2, Savinase (Lederbergia lenta, UniProt P29600); assay: storage stability of protease (Savinase activity, Suc-AAPF-pNA substrate) in liquid formulations at 37° C.; assay type: biochemical; settings: Savinase 16.0 L 0.5 wt %, storage at 37° C.
T2 construct: purchased Sigma-Aldrich
T2 sequence (P29600 1-269): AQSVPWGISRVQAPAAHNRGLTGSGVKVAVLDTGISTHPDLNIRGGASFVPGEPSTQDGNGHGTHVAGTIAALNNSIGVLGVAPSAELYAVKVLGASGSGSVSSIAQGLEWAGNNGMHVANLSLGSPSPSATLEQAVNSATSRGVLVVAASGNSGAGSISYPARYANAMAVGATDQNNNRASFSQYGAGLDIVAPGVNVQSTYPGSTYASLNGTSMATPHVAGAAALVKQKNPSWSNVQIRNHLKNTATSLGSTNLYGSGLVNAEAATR

[1] = base formulation I., component (a) 2.5 wt %, 1 d
[2] = base formulation I., component (a) 2.5 wt %, 3 d
[3] = base formulation I., component (a) 2.5 wt %, 6 d
[4] = base formulation I., component (a) 2.5 wt %, 10 d
[5] = base formulation I., component (a) 2.5 wt %, 15 d
[6] = base formulation I., component (a) 2.5 wt %, 20 d
[7] = base formulation I., component (a) 2.5 wt %, 25 d
[8] = base formulation I., component (a) 2.5 wt %, 30 d
[9] = base formulation I., component (a) 2.5 wt %, T0
[10] = base formulation IV., component (a) 4.0 wt %, 1 d
[11] = base formulation IV., component (a) 4.0 wt %, 3 d
[12] = base formulation IV., component (a) 4.0 wt %, 6 d
[13] = base formulation IV., component (a) 4.0 wt %, 10 d
[14] = base formulation IV., component (a) 4.0 wt %, 15 d
[15] = base formulation IV., component (a) 4.0 wt %, 20 d
[16] = base formulation IV., component (a) 4.0 wt %, 25 d
[17] = base formulation IV., component (a) 4.0 wt %, 30 d
[18] = base formulation IV., component (a) 4.0 wt %, T0
[19] = base formulation III., component (a) 2.5 wt %, 1 d
[20] = base formulation III., component (a) 2.5 wt %, 3 d
[21] = base formulation III., component (a) 2.5 wt %, 6 d
[22] = base formulation III., component (a) 2.5 wt %, 10 d
[23] = base formulation III., component (a) 2.5 wt %, 15 d
[24] = base formulation III., component (a) 2.5 wt %, 20 d
[25] = base formulation III., component (a) 2.5 wt %, 25 d
[26] = base formulation III., component (a) 2.5 wt %, 30 d
[27] = base formulation III., component (a) 2.5 wt %, T0

C[N+](C)(C)CCO.C[N+](C)(C)CCO.O=C([O-])CC(O)(CC(=O)O)C(=O)[O-] [C-(A.17)]
lipase activity (Lipolase; [1]): 90% | lipase activity (Lipolase; [2]): 80% | lipase activity (Lipolase; [3]): 70% | lipase activity (Lipolase; [4]): 53% | lipase activity (Lipolase; [5]): 42% | lipase activity (Lipolase; [6]): 38% | lipase activity (Lipolase; [7]): 33% | lipase activity (Lipolase; [8]): 29% | lipase activity (Lipolase; [9]): 97% | lipase activity (Lipolase; [10]): 93% | lipase activity (Lipolase; [11]): 86% | lipase activity (Lipolase; [12]): 74% | lipase activity (Lipolase; [13]): 63% | lipase activity (Lipolase; [14]): 51% | lipase activity (Lipolase; [15]): 46% | lipase activity (Lipolase; [16]): 38% | lipase activity (Lipolase; [17]): 33% | lipase activity (Lipolase; [18]): 96% | protease activity (Savinase; [1]): 90% | protease activity (Savinase; [2]): 81% | protease activity (Savinase; [3]): 70% | protease activity (Savinase; [4]): 49% | protease activity (Savinase; [5]): 38% | protease activity (Savinase; [6]): 30% | protease activity (Savinase; [7]): 23% | protease activity (Savinase; [8]): 12% | protease activity (Savinase; [9]): 98% | protease activity (Savinase; [19]): 94% | protease activity (Savinase; [20]): 83% | protease activity (Savinase; [21]): 71% | protease activity (Savinase; [22]): 53% | protease activity (Savinase; [23]): 42% | protease activity (Savinase; [24]): 34% | protease activity (Savinase; [25]): 27% | protease activity (Savinase; [26]): 14% | protease activity (Savinase; [27]): 92%

C[N+](C)(C)CCO.C[N+](C)(C)CCO.C[N+](C)(C)CCO.O=C([O-])CC(O)(CC(=O)[O-])C(=O)[O-] [C-(A.18)]
lipase activity (Lipolase; [1]): 91% | lipase activity (Lipolase; [2]): 84% | lipase activity (Lipolase; [3]): 72% | lipase activity (Lipolase; [4]): 55% | lipase activity (Lipolase; [5]): 45% | lipase activity (Lipolase; [6]): 39% | lipase activity (Lipolase; [7]): 32% | lipase activity (Lipolase; [8]): 29% | lipase activity (Lipolase; [9]): 98% | lipase activity (Lipolase; [10]): 91% | lipase activity (Lipolase; [11]): 84% | lipase activity (Lipolase; [12]): 72% | lipase activity (Lipolase; [13]): 58% | lipase activity (Lipolase; [14]): 49% | lipase activity (Lipolase; [15]): 46% | lipase activity (Lipolase; [16]): 39% | lipase activity (Lipolase; [17]): 35% | lipase activity (Lipolase; [18]): 95% | lipase activity (Lipolase; base formulation VI., component (a) 4.0 wt %, 1 d): 90% | lipase activity (Lipolase; base formulation VI., component (a) 4.0 wt %, 3 d): 83% | lipase activity (Lipolase; base formulation VI., component (a) 4.0 wt %, 6 d): 75% | lipase activity (Lipolase; base formulation VI., component (a) 4.0 wt %, 10 d): 58% | lipase activity (Lipolase; base formulation VI., component (a) 4.0 wt %, 15 d): 50% | lipase activity (Lipolase; base formulation VI., component (a) 4.0 wt %, 20 d): 48% | lipase activity (Lipolase; base formulation VI., component (a) 4.0 wt %, 25 d): 37% | lipase activity (Lipolase; base formulation VI., component (a) 4.0 wt %, 30 d): 32% | lipase activity (Lipolase; base formulation VI., component (a) 4.0 wt %, T0): 96% | protease activity (Savinase; [19]): 94% | protease activity (Savinase; [20]): 85% | protease activity (Savinase; [21]): 72% | protease activity (Savinase; [22]): 54% | protease activity (Savinase; [23]): 43% | protease activity (Savinase; [24]): 35% | protease activity (Savinase; [25]): 28% | protease activity (Savinase; [26]): 14% | protease activity (Savinase; [27]): 94% | protease activity (Savinase; base formulation V., component (a) 4.0 wt %, 1 d): 90% | protease activity (Savinase; base formulation V., component (a) 4.0 wt %, 3 d): 83% | protease activity (Savinase; base formulation V., component (a) 4.0 wt %, 6 d): 64% | protease activity (Savinase; base formulation V., component (a) 4.0 wt %, 10 d): 50% | protease activity (Savinase; base formulation V., component (a) 4.0 wt %, 15 d): 40% | protease activity (Savinase; base formulation V., component (a) 4.0 wt %, 20 d): 33% | protease activity (Savinase; base formulation V., component (a) 4.0 wt %, 25 d): 25% | protease activity (Savinase; base formulation V., component (a) 4.0 wt %, 30 d): 16% | protease activity (Savinase; base formulation V., component (a) 4.0 wt %, T0): 83%

— patent US11512268B2, “Storage-stable enzyme preparations, their production and use” (BASF SE, priority 2017, dated 2022)
